Experimental data as given in patent US20260000629A1, “FERROPTOSIS INHIBITOR” (TOHOKU UNIVERSITY, priority 2020, published 2026).

Columns and labels:
C2C12 cell line = test: Ferroptosis induction treatment, cell viability by WST-8 assay, C2C12 cell line; type: cell-based, mouse; conditions: with 500 μM BSO, FIG. 3C
Source text: (§1) Three different cell lines (the H9C2 cell line, which is a rat cardiac myoblast cell line, the NR[…] cell line, which is a rat kidney fibroblast, and the C2C12 cell line, which is a mouse myoblast cell line) were obtained from the American Type Culture Collection (ATCC); the Panc-1 cell line, which is a human pancreatic cancer cell line, was obtained the Cell Resource Center for Biomedical Research, Institute of Development, Aging and Cancer, Tohoku University/Cell Bank; and the HT22 cell line, which is a mouse hippocampus nerve cell line, was purchased from Merck Millipore Co. All the cell lines were subcultured in a Dulbecco's Modified Eagle Medium (DMEM) culture solution containing 100-fold diluted 1% penicillin-streptomycin (26253-84; manufactured by Nacalai Tesque, Inc.) (hereinafter simply referred to as “DMEM culture solution”) to which 10% fetal bovine serum (FBS) and 4.5 g glucose/L were added (hereinafter referred to as “DMEM [high glucose] culture solution”) under conditions of 5% CO2/20% O2 and 37° C. 4000 cells of five different cell lines (the H9C2 cell line, the Panc-1 cell line, the NR[…] cell line, the C2C12 cell line, and the HT22 cell line) were seeded on a 96-well plate and cultured overnight in a DMEM culture solution containing 1.0 g glucose/L (low glucose) and 1% FBS (hereinafter referred to as “DMEM [low glucose low serum] culture solution”). After the procedure of the above-mentioned, ferroptosis was induced in cells from the above-mentioned five different cell lines in the presence of each of five different vitamin K group compounds of the present invention (vitamin K1, vitamin K2 [menaquinone-4], vitamin K3, or vitamin K3 hydroquinone) (see Table 1) or a known ferroptosis inhibitor (ferrostatin 1). […] Cell viability levels were measured by WST-8 assay using Cell Count Reagent SF. The cell viability level was calculated as a relative value of the cell survival level when the cell viability level when cultured in the absence of a test substance and a ferroptosis inducer was set to 1.

AHI model mice = test: In vivo analysis using acute hepatic injury (AHI) model mice (LPS and D-GalN); design: species or system mouse; conditions: oral 20 mg/kg at 12 h and 2 h before LPS and D-GalN, vs AHI/solvent treatment group
Procedure: An AHI model mouse was prepared by administering lipopolysaccharide (LPS) and D-galactosamine (D-GalN). Specifically, eight to nine week-old wild-type male mice (C57BL/6N; manufactured by CLEA) were divided into three groups (the wild type group [n=4], the AHI/solvent treatment group [n=7], and the AHI/VK2 treatment group [n=8]). At 12 hours and two hours before administration of LPS and D-GalN, 0.5% methylcellulose solution (solvent) was orally administered at a dose of 20 mg/kg (body weight) to the AHI/solvent treatment group, and a methylcellulose solution containing vitamin K2 (menaquinone-4) was orally administered at a dose of 20 mg (vitamin K2)/kg (body weight) to the AHI/VK2 treatment group. For LPS and D-GalN administration, PBS containing LPS and D-GalN was injected into the peritoneal cavity at a dose of 5 μg (LPS)/kg (body weight) and 500 mg (D-GalN)/kg (body weight) to the two AHI groups (that is, the AHI/solvent treatment group and the AHI/VK2 treatment group) (refer to “Sci Rep 7:1884, 2017”). The mice were sacrificed at six hours after injection, and blood and liver tissue were collected. The plasma GPT levels were measured for the collected blood using Fuji Dri-chem Slide GPT/ALT-P III (manufactured by Fujifilm Medical). Further, the collected liver tissue was fixed in 10% neutral buffered formalin and embedded in paraffin. The paraffin-embedded liver tissue was sliced to prepare liver tissue sections and subjected to hematoxylin and eosin (HE) staining. Further, deparaffinization treatment was performed by heating the liver tissue sections in a 0.01 M citric acid buffer solution (pH 6.0) at 120° C. for five minutes to prepare deparaffinized liver tissue sections. Immunohistological staining of the deparaffinized liver tissue sections using an anti-HEL antibody (50-fold diluted; clone 5F12; manufactured by JaICA) was performed in accordance with a usual method using a streptavidin-biotin-alkaline phosphatase kit (Histofine SAB-AP [M] kit; manufactured by Nichirei Corporation) and Vector Red Substrate kit (manufactured by Vector Laboratories). Further, dead cells were detected by the TUNEL method using Apop Tag Peroxidase In Situ Apoptosis Detection Kit (manufactured by Merck Millipore).

Panc-1 cell line = test: Ferroptosis induction treatment, cell viability by WST-8 assay, Panc-1 cell line; type: cell-based, human; conditions: with 5 μM elastin, FIG. 3A
Source text: as §1

HT22 cell line = test: Ferroptosis induction treatment (glutamic acid), cell viability by WST-8 assay, HT22 cell line; type: cell-based, mouse; conditions: with 4 mM glutamic acid, FIG. 4
Source text: as §1

[1] = system: lipid peroxy radicals (LOO·); test: Scavenging ability against lipid peroxy radicals, AA/LOX system using NBD-Pen fluorescence probe; type: biochemical; conditions: 100 μM test substance; AA and LOX, PBS pH 7.4, 37° C.; vs absence of test substance; FIG. 6
Procedure: The scavenging ability against lipid peroxy radicals (LOO·) was analyzed by the AA/LOX system using an NBD-Pen fluorescence probe in accordance with the method in “Nat Chem Biol 12:608-613, 2016.” Specifically, a mixture solution of 0.1% DMSO or 100 μM each of four different test substances (vitamin K1 [manufactured by FUJIFILM Wako Pure Chemical Corporation], vitamin K2 [menaquinone-4; manufactured by Sigma-Aldrich], menadione [manufactured by Sigma-Aldrich], or vitamin K3 hydroquinone [manufactured by Toronto Research Chemicals]) and PBS (pH 7.4) containing 500 μM arachidonic acid (manufactured by Sigma-Aldrich) and 1 mM dithiothreitol (DTT) was prepared and added to a 96-well plate, then 5 μM NBD-Pen fluorescence probe and 10 μg/mL LOX solution (manufactured by Sigma-Aldrich) were added, and the fluorescence level (excitation light, 470 nm; fluorescence wavelength, 530 nm) was measured using a microplate reader (Spectra Max M2e; manufactured by Molecular Devices) at 37° C. […] In the AA/LOX system using an NBD-Pen fluorescence probe, an oxidation reaction of AA by LOX produces a lipid peroxide (LOOH), a lipid peroxy radical (LOO·) is produced from the produced LOOH by Fenton reaction using an iron ion (Fe^2+) as a catalyst, and a scavenging ability against lipid peroxy radicals is detected using the level of NBD-Pen-derived fluorescence produced by a reaction of the produced lipid peroxy radical with NBD-Pen as an indicator.

H9C2 cell line = test: Ferroptosis induction treatment, cell viability by WST-8 assay, H9C2 cell line; type: cell-based, rat; conditions: for cell viability level compared with ferroptosis inducer alone: with 50 nM RSL3, 2 μM elastin, 0.3 μM ML210, 0.3 μM ML162, 0.5 μM FIN56, 100 μM BSO or 5 μM FINO2, FIG. 2; for decrease in the cell viability level caused by ferroptosis inducer: with 100 μM BSO, 2 μM elastin, 50 nM RSL3 or 0.5 μM FIN56, FIG. 1
Source text: Three different cell lines (the H9C2 cell line, which is a rat cardiac myoblast cell line, the NR[…] cell line, which is a rat kidney fibroblast, and the C2C12 cell line, which is a mouse myoblast cell line) were obtained from the American Type Culture Collection (ATCC); the Panc-1 cell line, which is a human pancreatic cancer cell line, was obtained the Cell Resource Center for Biomedical Research, Institute of Development, Aging and Cancer, Tohoku University/Cell Bank; and the HT22 cell line, which is a mouse hippocampus nerve cell line, was purchased from Merck Millipore Co. All the cell lines were subcultured in a Dulbecco's Modified Eagle Medium (DMEM) culture solution containing 100-fold diluted 1% penicillin-streptomycin (26253-84; manufactured by Nacalai Tesque, Inc.) (hereinafter simply referred to as “DMEM culture solution”) to which 10% fetal bovine serum (FBS) and 4.5 g glucose/L were added (hereinafter referred to as “DMEM [high glucose] culture solution”) under conditions of 5% CO2/20% O2 and 37° C. 4000 cells of five different cell lines (the H9C2 cell line, the Panc-1 cell line, the NR[…] cell line, the C2C12 cell line, and the HT22 cell line) were seeded on a 96-well plate and cultured overnight in a DMEM culture solution containing 1.0 g glucose/L (low glucose) and 1% FBS (hereinafter referred to as “DMEM [low glucose low serum] culture solution”). After the procedure of the above-mentioned, ferroptosis was induced in cells from the above-mentioned five different cell lines in the presence of each of […] of the present invention (vitamin K1, vitamin K2 [menaquinone-4], vitamin K3, or vitamin K3 hydroquinone) (see Table 1) or a known ferroptosis inhibitor (ferrostatin 1). Specifically, cells from the H9C2 cell line were cultured in the presence of each of six different test substances (10 μM vitamin K1 [manufactured by FUJIFILM Wako Pure Chemical Corporation], 10 μM menaquinone-4 [manufactured by Sigma-Aldrich], 3 μM or 1 μM menadione [manufactured by Sigma-Aldrich], 1 μM vitamin K3 hydroquinone [manufactured by Toronto Research Chemicals], or 0.3 μM ferrostatin 1 [manufactured by Cayman]) at various concentrations and each of eight different ferroptosis inducers (100 μM BSO [manufactured by Sigma-Aldrich], 1.5 μM or 2 μM elastin [manufactured by Cayman], 50 nM RSL3 [manufactured by Selleck Chemicals], 0.3 μM ML210 [manufactured by Cayman], 0.3 μM ML162 [manufactured by Cayman], 0.5 μM FIN56 [manufactured by Cayman], 5 μM FINO2 [manufactured by Cayman], or 4 mM glutamic acid [manufactured by Sigma-Aldrich]) for 60 hours for BSO treatment, for 48 hours for elastin treatment, RSL3 treatment, and FIN56 treatment, and for 24 hours for ML210 treatment, ML162 treatment, FINO2 treatment, and glutamic acid treatment. Cell viability levels were measured by WST-8 assay using Cell Count Reagent SF. The cell viability level was calculated as a relative value of the cell survival level when the cell viability level when cultured in the absence of a test substance and a ferroptosis inducer was set to 1.

NRK49F cell line = test: Ferroptosis induction treatment, cell viability by WST-8 assay, NRK49F cell line; type: cell-based, rat; conditions: with 500 μM BSO, FIG. 3B
Source text: as §1

SMILES | decrease in the cell viability level caused by ferroptosis inducer (C2C12 cell line; 10 μM test substance) | decrease in the cell viability level caused by ferroptosis inducer (Panc-1 cell line; 10 μM test substance) | decrease in the cell viability level caused by ferroptosis inducer (HT22 cell line; 10 μM test substance) | NBD-Pen fluorescence signal level (scavenging of lipid peroxy radicals) [1] | cell viability level compared with ferroptosis inducer alone (H9C2 cell line; 10 μM test substance) | decrease in the cell viability level caused by ferroptosis inducer (H9C2 cell line; 10 μM test substance) | decrease in the cell viability level caused by ferroptosis inducer (NRK49F cell line; 10 μM test substance) | decrease in the cell viability level caused by ferroptosis inducer (H9C2 cell line; 1 μM test substance) | further results
CC(C)=CCCC(C)=CCCC(C)=CCC/C(C)=C/CC1=C(C)C(=O)c2ccccc2C1=O [vitamin K2, Menaquinone-4 (MK-4)] | significantly suppressed | significantly suppressed | significantly suppressed | decreased | significantly increased | significantly suppressed | significantly suppressed |  | HEL detection level in liver tissue (lipid peroxide marker) (AHI model mice; FIG. 5A): substantially decreased; severe hemorrhage in the liver tissue (HE staining) (AHI model mice; FIG. 5A): relieved; plasma GPT level (AHI model mice; FIG. 5B): significantly decreased; proportion of dead cells in liver tissue (TUNEL method) (AHI model mice; FIGS. 5A and 5C): significantly decreased
CCOC(=O)c1ccc(NC2CCCCC2)c(N)c1 [ferrostatin 1] |  |  |  |  |  |  |  |  | cell viability level compared with ferroptosis inducer alone (H9C2 cell line; 0.3 μM test substance): significantly increased; decrease in the cell viability level caused by ferroptosis inducer (H9C2 cell line; 0.3 μM test substance): significantly suppressed
CC1=C(C/C=C(\C)CCCC(C)CCCC(C)CCCC(C)C)C(=O)c2ccccc2C1=O (centres unmarked) [vitamin K1, Phylloquinone] | significantly suppressed | significantly suppressed | significantly suppressed | decreased | significantly increased | significantly suppressed | significantly suppressed |  | 
CC1=CC(=O)c2ccccc2C1=O [menadione, Menadione] |  |  |  | decreased |  |  |  | significantly suppressed | decrease in the cell viability level caused by ferroptosis inducer (C2C12 cell line; 3 μM test substance): significantly suppressed; decrease in the cell viability level caused by ferroptosis inducer (Panc-1 cell line; 3 μM test substance): significantly suppressed; decrease in the cell viability level caused by ferroptosis inducer (HT22 cell line; 3 μM test substance): significantly suppressed; cell viability level compared with ferroptosis inducer alone (H9C2 cell line; 3 μM test substance): significantly increased; decrease in the cell viability level caused by ferroptosis inducer (NRK49F cell line; 3 μM test substance): significantly suppressed
Cc1cc(O)c2ccccc2c1O [vitamin K3 hydroquinone, Menadiol] |  |  |  | decreased |  |  |  | significantly suppressed | 
